Reference: US5149707A, “1-((2-fluorophenyl)(4-fluorophenyl)phenylmethyl)-1H-imidazole useful as antifungal agent” (J. Uriach & Cia, S.A., priority 1988, dated 1992)
≈ marks a conversion by molar mass, not a printed value. Where two headings read alike, the source gives them in different places.

Columns and labels:
Type in all cases: cell-based
[1] = tested on: Aspergillus flavus; experiment: In vitro antifungal activity (MIC), agar dilution
Description: (§1) The antifungal activity of 1-[(2-fluorophenyl)(4-fluorophenyl)phenylmethyl]-1H-imidazole was shown by its ability to inhibit the growth of different species of yeast and filamentous fungi in vitro. The activity was recorded as the MIC value, that is, the minimum amount of product needed to achieve the complete inhibition of the in vitro growth of the test organism. Testing was performed as follows: a solution of the antifungal agent in ethanol was diluted with DST agar (pH 6.5) or Emmon's Sabouraud dextrose agar to obtain concentrations between 10 and 0.01 mcg/ml, or 80 and 0.16 mcg/m, respectively. The inoculum was standarized in order 1×10^5 cfu/ml, and 10 mcl of each organism was seeded into the agar surface. Incubation was then allowed at 30° C. during 3 days (DST) or 2 days (Emmon's) for yeasts and 10 days for filamentous fungi. Following incubation, the zones of inhibition were measured and compared to an inoculated, drug-free control to yield the MIC value.

[2] = tested on: Aspergillus fumigatus (1); experiment: In vitro antifungal activity (MIC), agar dilution; conditions: read-out: MIC
Description: as §1

[3] = tested on: Aspergillus fumigatus (2); experiment: In vitro antifungal activity (MIC), agar dilution; conditions: read-out: MIC
Description: as §1

[4] = tested on: Aspergillus niger; experiment: In vitro antifungal activity (MIC), agar dilution
Description: as §1

[5] = tested on: C. albicans ATCC 10231; experiment: In vitro antifungal activity (MIC), agar dilution; conditions: Candida albicans, read-out: MIC
Description: as §1

[6] = tested on: C. albicans ATCC 28516; experiment: In vitro antifungal activity (MIC), agar dilution; conditions: Candida albicans, read-out: MIC
Description: as §1

[7] = tested on: C. albicans serotipo A; experiment: In vitro antifungal activity (MIC), agar dilution; conditions: Candida albicans, read-out: MIC
Description: as §1

[8] = tested on: C. albicans serotipo B; experiment: In vitro antifungal activity (MIC), agar dilution; conditions: Candida albicans, read-out: MIC
Description: as §1

[9] = tested on: C. guilliermondii (clinica); experiment: In vitro antifungal activity (MIC), agar dilution
Description: as §1

[10] = tested on: C. guilliermondii SQ 2210; experiment: In vitro antifungal activity (MIC), agar dilution; conditions: Meyerozyma guilliermondii, read-out: MIC
Description: as §1

[11] = tested on: C. parapsilosis (clinica); experiment: In vitro antifungal activity (MIC), agar dilution; conditions: Lodderomyces parapsilosis, read-out: MIC
Description: as §1

[12] = tested on: C. pseudotropicalis ATCC 28838; experiment: In vitro antifungal activity (MIC), agar dilution; conditions: Kluyveromyces marxianus, read-out: MIC
Description: as §1

[13] = tested on: C. tropicalis SQ 1647; experiment: In vitro antifungal activity (MIC), agar dilution; conditions: Candida tropicalis, read-out: MIC
Description: as §1

[14] = tested on: Microsporum audouini ATCC 9079; experiment: In vitro antifungal activity (MIC), agar dilution
Description: as §1

[15] = tested on: Microsporum canis (clinica); experiment: In vitro antifungal activity (MIC), agar dilution
Description: as §1

[16] = tested on: Microsporum gypseum (-); experiment: In vitro antifungal activity (MIC), agar dilution; conditions: Nannizzia gypsea
Description: as §1

[17] = tested on: Microsporum gypseum; experiment: In vitro antifungal activity (MIC), agar dilution; conditions: Nannizzia gypsea
Description: as §1

[18] = tested on: Rhodotorula rubra; experiment: In vitro antifungal activity (MIC), agar dilution
Description: as §1

[19] = tested on: S. cerevisiae ATCC 9763; experiment: In vitro antifungal activity (MIC), agar dilution; conditions: Saccharomyces cerevisiae, read-out: MIC
Description: as §1

[20] = tested on: T. glabrata (clinica); experiment: In vitro antifungal activity (MIC), agar dilution; conditions: Nakaseomyces glabratus, read-out: MIC
Description: as §1

[21] = tested on: T. mentagrophytes (clinica) (1); experiment: In vitro antifungal activity (MIC), agar dilution; conditions: Trichophyton mentagrophytes, read-out: MIC
Description: as §1

[22] = tested on: T. mentagrophytes (clinica) (2); experiment: In vitro antifungal activity (MIC), agar dilution; conditions: Trichophyton mentagrophytes, read-out: MIC
Description: as §1

[23] = tested on: T. mentagrophytes (clinica) (3); experiment: In vitro antifungal activity (MIC), agar dilution; conditions: Trichophyton mentagrophytes, read-out: MIC
Description: as §1

[24] = tested on: T. mentagrophytes (clinica) (4); experiment: In vitro antifungal activity (MIC), agar dilution; conditions: Trichophyton mentagrophytes, read-out: MIC
Description: as §1

[25] = tested on: T. mentagrophytes (clinica) (5); experiment: In vitro antifungal activity (MIC), agar dilution; conditions: Trichophyton mentagrophytes, read-out: MIC
Description: as §1

[26] = tested on: T. mentagrophytes ATCC 9129; experiment: In vitro antifungal activity (MIC), agar dilution; conditions: Trichophyton mentagrophytes, read-out: MIC
Description: as §1

[27] = tested on: T. mentagrophytes ATCC 9972; experiment: In vitro antifungal activity (MIC), agar dilution; conditions: Trichophyton mentagrophytes, read-out: MIC
Description: as §1

[28] = tested on: T. rubrum; experiment: MIC distribution, serial dilutions in Sabouraud gentamycin broth, microplates; conditions: # of strains = 6
Description: The antifungal activity of 1-[(2-fluorophenyl)(4-fluorophenyl)phenylmethyl]-1H-imidazole and bifonazole was determined by serial dilutions in Sabouraud gentamycin broth using microplates. The antifungal agent was diluted in 50% ethanol to obtain concentrations between 40 and 0.015 mcg/ml. Inoculum was 10^7 cfu/ml for yeast and 10^6 cfu/ml for dermatophytes. Incubation was allowed at 37° C. during 2 days for yeasts, and at 29° C. during 7 days for dermatophytes. MIC's were determined as in example 18. The MIC distributions obtained in 9 organisms are shown in the next tables.

[29] = Emmon's Sabouraud dextrose agar

`Fc1ccc(C(c2ccccc2)(c2ccccc2F)n2ccnc2)cc1` (stereo not drawn) [UR-4056, 1-[(2-fluorophenyl) (4-fluorophenyl)phenylmethyl]-1H-imidazole] showed an MIC ([1]; DST agar) of 1 µg/mL (≈ 2.89 µM), an MIC [1, 29] of 2.5 µg/mL (≈ 7.22 µM) and an MIC ([2]; DST agar) of 0.5 µg/mL (≈ 1.44 µM). For the same compound, the MIC [2, 29] was 0.63 µg/mL (≈ 1.82 µM), the MIC ([3]; DST agar) was 0.5 µg/mL (≈ 1.44 µM) and the MIC [3, 29] was 1.25 µg/mL (≈ 3.61 µM). It also gave an MIC ([4]; DST agar) of 0.25 µg/mL (≈ 0.722 µM), an MIC [4, 29] of 2.5 µg/mL (≈ 7.22 µM) and an MIC ([5]; ATCC10231, DST agar) of 1 µg/mL (≈ 2.89 µM). The MIC ([5]; ATCC10231, Emmon's Sabouraud dextrose agar) was 0.04 µg/mL (≈ 0.115 µM), the MIC ([6]; ATCC28516, DST agar) was 0.5 µg/mL (≈ 1.44 µM) and the MIC ([6]; ATCC28516, Emmon's Sabouraud dextrose agar) was 0.04 µg/mL (≈ 0.115 µM). It also gave an MIC ([7]; DST agar) of 1 µg/mL (≈ 2.89 µM), an MIC [7, 29] of 1.25 µg/mL (≈ 3.61 µM) and an MIC ([8]; DST agar) of 0.5 µg/mL (≈ 1.44 µM). For the same compound, the MIC [8, 29] was 0.31 µg/mL (≈ 0.895 µM), the MIC [9, 29] was 5.00 µg/mL (≈ 14.4 µM) and the MIC ([9]; Meyerozyma guilliermondii, DST agar, read-out: MIC) was 5 µg/mL (≈ 14.4 µM). For the same compound, the MIC ([10]; SQ2210, DST agar) was 1 µg/mL (≈ 2.89 µM), the MIC ([10]; SQ2210, Emmon's Sabouraud dextrose agar) was 0.16 µg/mL (≈ 0.462 µM) and the MIC ([11]; DST agar) was 0.5 µg/mL (≈ 1.44 µM). The MIC [11, 29] was 0.08 µg/mL (≈ 0.231 µM), the MIC ([12]; ATCC28838, DST agar) was 0.025 µg/mL (≈ 0.0722 µM) and the MIC ([12]; ATCC28838, Emmon's Sabouraud dextrose agar) was 0.63 µg/mL (≈ 1.82 µM). For the same compound, the MIC ([13]; SQ1647, DST agar) was 1 µg/mL (≈ 2.89 µM), the MIC ([13]; SQ1647, Emmon's Sabouraud dextrose agar) was 0.63 µg/mL (≈ 1.82 µM) and the MIC ([14]; ATCC9079, DST agar) was 0.05 µg/mL (≈ 0.144 µM). For the same compound, the MIC ([14]; ATCC9079, Emmon's Sabouraud dextrose agar) was 0.63 µg/mL (≈ 1.82 µM), the MIC ([15]; DST agar) was 0.025 µg/mL (≈ 0.0722 µM) and the MIC [15, 29] was 0.63 µg/mL (≈ 1.82 µM). It also gave an MIC ([16]; DST agar) of 0.1 µg/mL (≈ 0.289 µM), an MIC [16, 29] of 0.63 µg/mL (≈ 1.82 µM) and an MIC ([17]; DST agar) of 0.5 µg/mL (≈ 1.44 µM). The MIC [17, 29] was 1.25 µg/mL (≈ 3.61 µM), the MIC ([18]; DST agar) was 0.1 µg/mL (≈ 0.289 µM) and the MIC [18, 29] was 0.08 µg/mL (≈ 0.231 µM). It also gave an MIC ([19]; ATCC9763, DST agar) of 0.1 µg/mL (≈ 0.289 µM), an MIC ([19]; ATCC9763, Emmon's Sabouraud dextrose agar) of 0.31 µg/mL (≈ 0.895 µM) and an MIC ([20]; DST agar) of 0.05 µg/mL (≈ 0.144 µM). The MIC [20, 29] was 0.31 µg/mL (≈ 0.895 µM), the MIC ([21]; DST agar) was 0.1 µg/mL (≈ 0.289 µM) and the MIC [21, 29] was 1.25 µg/mL (≈ 3.61 µM). It also gave an MIC ([22]; DST agar) of 10 µg/mL (≈ 28.9 µM), an MIC [22, 29] of 40 µg/mL (≈ 115 µM) and an MIC ([23]; DST agar) of 0.25 µg/mL (≈ 0.722 µM). For the same compound, the MIC [23, 29] was 0.16 µg/mL (≈ 0.462 µM), the MIC ([24]; DST agar) was 0.1 µg/mL (≈ 0.289 µM) and the MIC [24, 29] was 1.25 µg/mL (≈ 3.61 µM). For the same compound, the MIC ([25]; DST agar) was 0.1 µg/mL (≈ 0.289 µM), the MIC [25, 29] was 1.25 µg/mL (≈ 3.61 µM) and the MIC ([26]; ATCC9129, DST agar) was 0.05 µg/mL (≈ 0.144 µM). For the same compound, the MIC ([26]; ATCC9129, Emmon's Sabouraud dextrose agar) was 0.31 µg/mL (≈ 0.895 µM), the MIC ([27]; ATCC9972, DST agar) was 0.25 µg/mL (≈ 0.722 µM) and the MIC ([27]; ATCC9972, Emmon's Sabouraud dextrose agar) was 1.25 µg/mL (≈ 3.61 µM). The “MIC Distribution (number of strains)” value ([28]; MIC 0.15) was 4 # of strains, the “MIC Distribution (number of strains)” value ([28]; MIC 2.5) was 1 # of strains and the “MIC Distribution (number of strains)” value ([28]; MIC column 1.2) was 1 # of strains.
